Measured values published in a melting point compilation (Tetko et al.; mined from patent text by program, amines drawn as free bases though some values may be those of a salt).

SMILES | melting point [°C]
CC(C)c1c(Sc2cc(Cl)cc(Cl)c2)nc(CO)n1C | 167 to 168
Cc1c(F)c(N2CCC(N)C2)c(F)c2c1c(=O)c(C(=O)O)cn2-c1ccc(F)cc1F (stereo unspecified) | 230 to 232
OC(c1ccc(F)cc1)(c1ccc(F)cc1)C1CCN(Cc2ccccc2)CC1 | 113 to 115
Cc1c(C#N)c(=O)oc2ccc(Br)cc12 | 187 to 192
CC(Cn1ncnn1)n1nnc2cc3c(=O)n(CC#N)nnc3cc2c1=O (stereo unspecified) | 209 to 212
CCc1c(Cc2[nH]c(C=O)c(C)c2CCCOC(C)=O)[nH]c(Cc2[nH]c(C=O)c(C)c2CCCOC(C)=O)c1CC | 179 to 181
COC(=O)c1cc(C(=O)N2CCC(CO)CC2)c2cc(Cc3ccc(F)cc3)cnc2c1O | 161 to 162
CS(=O)(=O)c1ccc(C(CC2CCCCC2)C(=O)O)cc1 (stereo unspecified) | 139 to 143
N#Cc1ccc(NC(=O)NC(=O)c2ccccc2F)c(Cl)c1Cl | 298 to 300
CCC(=O)N(CCCc1ccccc1)C1CCc2c(cccc2NC(C)=O)C1 (stereo unspecified) | 148 to 150
CS(=O)(=O)c1cc(C(F)(F)F)ccc1C(=O)O | 156
CC1CC(=O)C=C2CCC3C4CCC(=O)C4(C)CCC3C21C (stereo unspecified) | 154
CCCCCCCCOC(=O)N(C[C@H](O)[C@@H](O)[C@H](O)[C@H](O)CO)C(C)CC (stereo partly specified) | 101
OCCNN=C(Cc1ccncc1)c1ccc(F)cc1 | 122 to 123
CCCCCC(O)C1C(=O)NC(C(=O)SCCNC(C)=O)(C(O)C2C=CCCC2)C1(C)O (stereo unspecified) | 80
CCCc1c(C(=O)C(C)C)c2ccc(C(N)=O)cc2n1Cc1ccc(Br)cc1Cl | 199 to 201
CC(=O)c1cc(N)c(Cl)cc1Cl | 74
COCCOc1cccc2cc(-c3nnn[nH]3)c(=O)oc12 | 215
OCCC#Cc1ncccn1 | 58 to 64
CCCCNC(=O)C(C)(C)N=NC(C)(C)C(=O)NCCCC | 65
Cc1nc2c(cc1C(=O)NC(=N)N)CCCCC2O (stereo unspecified) | 207 to 210
CCC1(CCCN2CCN(c3cccc(Cl)c3)CC2)C(=O)Nc2ccccc21 (stereo unspecified) | 119 to 120
COc1nc(N)nc(SC(F)F)n1 | 146 to 150
Nc1nnc(SCCCCc2ccccc2)s1 | 111
CC(C)c1nc(CC(=O)O)n(C)c1Sc1cc(Cl)cc(Cl)c1 | 118

Results, then the compound that gave them:

melting point [°C] | SMILES
148 | CS(=O)(=O)c1ccc(-c2cc(F)c(F)cc2-c2ccc(F)cc2)cc1
145 to 146 | O=C(O)COc1ccc(SCc2cccc(OCc3ccc(C(F)(F)F)cc3)c2)c2c1CCC2
196 | COC(=O)N1CCC(n2c(=O)[nH]c3cc(Cl)ccc32)C(C)C1 (stereo unspecified)
150 to 160 | COC(=O)C1Cc2c([nH]c3ccccc23)C(c2cccc(Cl)c2)N1 (stereo unspecified)
108 to 111 | COc1ccc(-c2ccc(-c3ccc(C)cc3)s2)s1
42 to 43 | CCOC(=O)c1ccccc1Nc1ccc(OC)cc1C
167 to 168 | CC1(Cc2ccccc2)Cc2cc(OCC(=O)O)c(Cl)c(Cl)c2C1=O (stereo unspecified)
102 | COc1cc(C)c(C(=O)c2c(Cl)cccc2Cl)cc1OC(C)(C)C
179 to 181 | N#Cc1c(Br)c(-c2ccc(Cl)cc2)n(C(=O)c2ccccc2)c1Cl
123 to 126 | O=C(c1ccccc1)c1ccc(O)c(Cl)c1Cl
228 | O=C(Nc1cccc(S(=O)(=O)Nc2ccccc2)c1)c1cnn2c(C(F)F)cc(-c3ccc(C(F)(F)F)cc3)nc12
118 to 119 | Cc1ccc(Oc2ccc(C#N)cc2)c(O)c1
132 to 135 | CP(=O)(NCC(=O)OCc1ccccc1)C1CC(c2ccccc2)=NO1 (stereo unspecified)
165 to 170 | COc1ccc(-c2cc(NC(=O)Nc3ccc(Cl)cc3)on2)cc1
107 to 108 | COC(=O)c1cc(CCl)ccc1OCc1nc(-c2ccco2)oc1C
238 to 241 | O=c1[nH]c2c(-c3ccccc3F)nnn2c2ccccc12
